US20180256623A1, “COMPOSITIONS AND METHOD FOR REGULATING ADIPOSE TISSUE LIPOLYSIS, INSULIN-RESISTANCE, AND HYPERGLYCEMIA” (University of Virginia Patent Foundation, priority 2015, published 2018)
Where two headings read alike, the source gives them in different places.

Assays:
STZ mice = assay: Hemorrhage and resuscitation protocol with Pseudomonas aeruginosa respiratory infection in STZ mice; assay type: in vivo; conditions: in response to Atglistatin treatment
From the text: How preventing hyperglycemia can aid recovery and improve survival will be investigated. STZ mice will be subjected to hemorrhage protocol described above, but then resuscitated by fluid replacement to perform a survival surgery. The metabolic status will be followed for up to three days and indices of wound repair and susceptibility to postoperative pneumonia was monitored (FIG. 1). Control and T1DM mice, treated with Atglistatin to inhibit lipolysis or vehicle, will be subjected to the hemorrhage and resuscitation protocol. The ability of Atglistatin to improve survival under baseline conditions, as well as improve wound healing and recovery, will be determined. In addition, it will be determined whether attenuating postoperative hyperglycemia via Atglistatin administration improves survival from postoperative pseudomonal pneumonia and/or improve indices of pneumonia. […] Animals will be monitored for several hours after surgery taking hourly blood glucose measurements. […] Lung injury will be assessed by albumin ELISA in the bronchoalveolar lavage (BAL) fluid. Bacterial counts will be performed in the lung and blood, flow cytometric analysis of BAL cells will be done to assess for leukocyte infiltration and function, and BAL fluid as well as serum will be analyzed for inflammatory cytokine release. […]

lipoprotein lipase = molecular target: T1, lipoprotein lipase (Homo sapiens, UniProt P06858); conditions: cited from earlier work
T1 sequence (P06858 28-475): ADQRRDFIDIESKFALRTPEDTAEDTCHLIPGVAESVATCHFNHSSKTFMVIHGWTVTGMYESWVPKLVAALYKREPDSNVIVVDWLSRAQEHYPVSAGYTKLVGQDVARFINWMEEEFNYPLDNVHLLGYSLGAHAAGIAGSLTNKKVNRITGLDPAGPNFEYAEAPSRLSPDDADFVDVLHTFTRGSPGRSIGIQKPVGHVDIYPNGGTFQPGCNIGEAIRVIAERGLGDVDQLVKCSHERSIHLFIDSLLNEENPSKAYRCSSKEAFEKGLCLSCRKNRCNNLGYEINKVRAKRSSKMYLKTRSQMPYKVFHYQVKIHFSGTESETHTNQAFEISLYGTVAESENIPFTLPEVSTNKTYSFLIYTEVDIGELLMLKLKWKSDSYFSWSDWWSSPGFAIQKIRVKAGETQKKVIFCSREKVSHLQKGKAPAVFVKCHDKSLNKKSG

PNPLA6 = molecular target: T2, PNPLA6 (Homo sapiens, UniProt Q8IY17); conditions: cited from earlier work
T2 sequence (Q8IY17 1-1375): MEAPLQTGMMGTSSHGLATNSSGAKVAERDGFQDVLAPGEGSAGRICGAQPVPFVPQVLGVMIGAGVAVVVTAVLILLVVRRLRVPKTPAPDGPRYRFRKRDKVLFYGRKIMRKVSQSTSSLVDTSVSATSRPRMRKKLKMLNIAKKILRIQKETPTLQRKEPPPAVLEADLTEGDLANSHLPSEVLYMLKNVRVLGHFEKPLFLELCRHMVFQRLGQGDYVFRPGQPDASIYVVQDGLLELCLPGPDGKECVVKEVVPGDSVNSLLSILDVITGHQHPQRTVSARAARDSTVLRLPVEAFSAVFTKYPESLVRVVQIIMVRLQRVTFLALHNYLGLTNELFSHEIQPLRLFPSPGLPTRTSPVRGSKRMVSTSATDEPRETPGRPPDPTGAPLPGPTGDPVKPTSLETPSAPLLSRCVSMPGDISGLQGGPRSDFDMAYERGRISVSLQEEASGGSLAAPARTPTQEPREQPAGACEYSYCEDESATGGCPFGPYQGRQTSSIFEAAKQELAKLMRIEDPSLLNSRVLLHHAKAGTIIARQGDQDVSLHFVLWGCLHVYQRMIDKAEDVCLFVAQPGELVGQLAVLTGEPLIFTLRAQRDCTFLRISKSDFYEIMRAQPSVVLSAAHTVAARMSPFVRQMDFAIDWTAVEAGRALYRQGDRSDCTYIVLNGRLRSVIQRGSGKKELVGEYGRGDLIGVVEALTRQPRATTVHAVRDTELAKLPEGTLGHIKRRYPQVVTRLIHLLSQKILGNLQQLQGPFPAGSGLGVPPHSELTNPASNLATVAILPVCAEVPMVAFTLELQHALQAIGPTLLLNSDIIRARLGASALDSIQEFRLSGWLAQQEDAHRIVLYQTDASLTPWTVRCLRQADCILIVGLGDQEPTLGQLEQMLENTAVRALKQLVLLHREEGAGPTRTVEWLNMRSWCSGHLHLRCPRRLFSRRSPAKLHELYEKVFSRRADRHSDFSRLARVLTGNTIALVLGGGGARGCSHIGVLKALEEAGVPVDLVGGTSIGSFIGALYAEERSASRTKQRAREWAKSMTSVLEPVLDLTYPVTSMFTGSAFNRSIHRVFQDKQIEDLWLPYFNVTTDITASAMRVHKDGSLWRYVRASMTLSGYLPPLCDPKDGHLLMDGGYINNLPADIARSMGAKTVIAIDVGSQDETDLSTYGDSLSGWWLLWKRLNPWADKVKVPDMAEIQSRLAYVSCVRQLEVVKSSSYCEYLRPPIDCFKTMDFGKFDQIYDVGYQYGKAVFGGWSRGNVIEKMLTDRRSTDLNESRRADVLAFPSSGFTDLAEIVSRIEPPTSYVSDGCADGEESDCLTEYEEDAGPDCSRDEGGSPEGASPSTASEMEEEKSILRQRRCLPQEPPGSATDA

PNPLA7 = PNPLA7 (Homo sapiens, UniProt Q6ZV29); conditions: cited from earlier work
PNPLA7, sequence (Q6ZV29 whole entry, species assumed): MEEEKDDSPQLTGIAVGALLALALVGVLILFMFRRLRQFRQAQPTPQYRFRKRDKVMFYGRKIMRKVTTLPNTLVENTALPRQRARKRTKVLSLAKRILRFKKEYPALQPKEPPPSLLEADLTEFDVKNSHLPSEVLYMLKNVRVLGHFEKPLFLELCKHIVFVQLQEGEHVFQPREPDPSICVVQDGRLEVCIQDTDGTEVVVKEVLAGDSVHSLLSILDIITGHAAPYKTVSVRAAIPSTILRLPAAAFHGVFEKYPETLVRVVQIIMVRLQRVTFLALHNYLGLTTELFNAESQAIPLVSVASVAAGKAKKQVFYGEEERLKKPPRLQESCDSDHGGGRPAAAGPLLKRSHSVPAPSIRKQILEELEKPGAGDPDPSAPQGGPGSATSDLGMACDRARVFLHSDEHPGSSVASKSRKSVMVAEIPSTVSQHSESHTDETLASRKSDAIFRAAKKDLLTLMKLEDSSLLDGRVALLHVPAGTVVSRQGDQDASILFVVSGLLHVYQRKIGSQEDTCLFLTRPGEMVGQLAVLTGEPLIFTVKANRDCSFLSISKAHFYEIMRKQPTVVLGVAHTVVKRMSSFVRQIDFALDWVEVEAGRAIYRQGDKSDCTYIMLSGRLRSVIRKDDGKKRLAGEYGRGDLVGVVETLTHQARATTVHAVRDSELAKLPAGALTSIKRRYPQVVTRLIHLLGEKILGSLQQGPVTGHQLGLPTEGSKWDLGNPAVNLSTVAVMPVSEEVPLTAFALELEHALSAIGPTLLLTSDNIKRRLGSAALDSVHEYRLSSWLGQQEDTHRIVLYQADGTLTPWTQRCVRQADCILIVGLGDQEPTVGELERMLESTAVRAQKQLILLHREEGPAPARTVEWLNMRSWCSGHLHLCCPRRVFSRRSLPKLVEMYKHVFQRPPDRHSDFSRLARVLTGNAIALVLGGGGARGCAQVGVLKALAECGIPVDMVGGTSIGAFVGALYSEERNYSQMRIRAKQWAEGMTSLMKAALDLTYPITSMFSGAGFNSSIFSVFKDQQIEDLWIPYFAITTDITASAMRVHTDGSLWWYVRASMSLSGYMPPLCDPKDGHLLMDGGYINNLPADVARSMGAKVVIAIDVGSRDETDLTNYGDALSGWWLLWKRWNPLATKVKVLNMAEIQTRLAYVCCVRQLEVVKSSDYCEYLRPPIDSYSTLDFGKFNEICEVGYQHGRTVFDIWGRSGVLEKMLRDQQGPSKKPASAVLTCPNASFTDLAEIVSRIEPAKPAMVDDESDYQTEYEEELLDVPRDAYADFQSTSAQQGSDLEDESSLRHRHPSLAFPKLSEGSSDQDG

lipolysis by ATGL [1] = conditions: in vitro; cited from earlier work
lipolysis by ATGL [2] = conditions: in vivo; cited from earlier work

## CN(C)C(=O)Nc1cccc(-c2ccc(N(C)C)cc2)c1 [Atglistatin, N′-[4′-(dimethylamino) [1,1′-biphenyl]-3-yl]-N,N-dimethyl-urea]
STZ mice
  immune cell function: restored to levels comparable with normoglycemic mice
Lipoprotein lipase
  inhibition of lipoprotein lipase: does not inhibit
PNPLA6
  inhibition of PNPLA6: does not inhibit
PNPLA7
  inhibition of PNPLA7: does not inhibit
Lipolysis by ATGL [1]
  lipolysis by ATGL (fatty acid mobilization): blocks lipolysis
Lipolysis by ATGL [2]
  lipolysis by ATGL (fatty acid mobilization): blocks lipolysis
